Assays:
Type in all cases: in vivo, mouse
[1] = tested on: RGS9 knockout mice and their wild type littermates; test: Locomotor activity (photobeam cage rack) in unlesioned animals
Description: (§1) RGS9 knockout mice and their wild type littermates were placed in the photobeam cage rack activity system. The photobeam cage rack activity system was made by San Diego Instruments. Single events represent disruption of two distinct light beams 10 cm apart. Before drug administration, animals were allowed to habituate for 30 min. which was scored as baseline activity. […] All drugs were injected intraperitoneally. Drug effects were assessed for 30 min. Bodyweight was measured prior to all drug applications.
Locomotion in Unlesioned Animals

[2] = tested on: RGS9 knockout mice and their wild type littermates; test: Locomotion in dopamine depleted (reserpine treated) animals
Description: as §1
There are several options to induce behavioral changes secondary to a dopaminergic deficit in rodents. However, a strong phenotype in mice is difficult o achieve. […] Therefore, we depleted the animals of dopamine using chronic treatment with reserpine (1 mg /kg per day×5 days). […] Baseline locomotor activity was already greater in homozygous knock-out animals (FIG. 2, n. s.).

[3] = tested on: RGS9 knockout mice and their wild type littermates; test: Dyskinesia rating (abnormal involuntary movements) in reserpine treated animals; conditions: apomorphine 5 mg/kg after chronic reserpine
Text: To score for abnormal involuntary movements we adapted a rating scale that was previously used to score drug induced dyskinesia in monkeys (Goulet and Madra, JPET 2000). Both, trunk and limb, dyskinesia and stereotypic behavior were rated-absent (=O), mild (=1), moderate (=or 2) or severe (=3).
Using a modified monkey dyskinesia scale, there was a dramatic difference between homozygous knock out animals and wild type or heterozygous mice (FIG. 3).

SMILES: Oc1cc2c(cc1O)C(c1ccccc1)CNCC2 (stereo not shown) [SKF 38393]
- increase in locomotion ([1]; SKF 38393 10 mg/kg, all animals, no differences between genotypes (p=0.7)): 2 fold

SMILES: COC(=O)[C@H]1[C@H]2C[C@@H]3c4[nH]c5cc(OC)ccc5c4CCN3C[C@H]2C[C@@H](OC(=O)c2cc(OC)c(OC)c(OC)c2)[C@@H]1OC [reserpine]
- spontaneous locomotion ([2]; reserpine 1 mg/kg per day x 5 days): greatly reduced spontaneous locomotion

SMILES: CN1CCc2cccc3c2[C@H]1Cc1ccc(O)c(O)c1-3 [apomorphine]
- locomotor activity ([2]; apomorphine 5 mg/kg after chronic reserpine, all animals): induced locomotor activity in all animals
- locomotor activity, homozygous knock-out vs other animals ([2]; apomorphine 5 mg/kg after chronic reserpine, homozygous knock out animals, p<0.05): more pronounced in homozygous knock out animals
- abnormal motor behavior (dystonia, hyperkinetic movements of the hindlimbs) [3]: induced abnormal motor behavior only in homozygous knockout animals

SMILES: C[C@H](N)Cc1ccccc1 [amphetamine, d-amphetamine]
- increase in locomotion, homozygous knock-out vs wild type ([1]; amphetamine 5 mg/kg intraperitoneal, homozygous knock-out animals, p<0.05, t-test): significantly greater increase in locomotion
- locomotion ([1]; amphetamine 5 mg/kg intraperitoneal, wild type and RGS9 deficient animals): robust increase in locomotion

Reference: patent US6750375B2, “Transgenic mouse comprising a disruption in an RGS9 gene” (California Institute of Technology, priority 2000, dated 2004)
